Laboratory results taken from PMC2990605 (British Journal of Cancer, 2010).

Columns and labels:
[1] = in vivo
Experimental: On day 21, samples were taken until 8 h post-dose; the day 22 predose sample was used as the 24 h sample of day 21. […] Peak plasma concentrations (Cmax), overall drug exposure (AUC), and terminal plasma half-life (t½) were calculated using noncompartmental methods using WinNonlin Professional software (version 4.1, Pharsight Corporation, St Louis, MO, USA). Pharmacokinetics analysis, with reference to possible interactions, was descriptive.

[2] = tested on: intracellular aminopeptidases; conditions: cited from earlier work
[3] = parameters: method as in Talmadge et al, 1986; Ichinose et al, 2003; conditions: ref Talmadge et al, 1986; Ichinose et al, 2003; cited from earlier work

| SMILES | overall exposure versus dose [1] | inhibition of intracellular aminopeptidases [2] | immunostimulatory activity [3] |
| --- | --- | --- | --- |
| CC(C)C[C@@H](C(=O)N[C@H](C(=O)O)c1ccccc1)[C@H](O)C(=O)NO [CHR-79888] | increased in a dose proportional manner | potent inhibitor | – |
| CC(C)C[C@H](NC(=O)[C@@H](O)[C@H](N)Cc1ccccc1)C(=O)O [bestatin] | – | – | immunostimulatory activity has been described |
